Test results: PubChem BioAssay (NCI)
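Values below derive from 48-hour exposures of cells grown in 96-well plates, with endpoints linearly interpolated between the two concentrations bracketing the appropriate inhibition level. TGI is the concentration that stops growth completely.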

Experiments:
Assay in all cases: NCI anticancer screen, dose series, 48 h
NCI-H23 lung = system: NCI-H23 lung
SK-MEL-28 melanoma = system: SK-MEL-28 melanoma
LOX IMVI melanoma = system: LOX IMVI melanoma
MOLT-4 leukemia = system: MOLT-4 leukemia
SF-539 CNS = system: SF-539 CNS
COLO 205 colon = system: COLO 205 colon
BT-549 breast = system: BT-549 breast
HOP-92 NSCLC = system: HOP-92 NSCLC
RXF 393 renal = system: RXF 393 renal
A498 renal = system: A498 renal
U251 CNS = system: U251 CNS
MDA-N = system: MDA-N
NCI-H460 lung = system: NCI-H460 lung
OVCAR-3 ovarian = system: OVCAR-3 ovarian
MCF7 breast = system: MCF7 breast
OVCAR-8 ovarian = system: OVCAR-8 ovarian
DU-145 prostate = system: DU-145 prostate
MDA-MB-231 breast = system: MDA-MB-231 breast
SF-295 CNS = system: SF-295 CNS
ACHN renal = system: ACHN renal
HL-60(TB) leukemia = system: HL-60(TB) leukemia
HCC-2998 colon = system: HCC-2998 colon
HCT-116 colon = system: HCT-116 colon
M14 melanoma = system: M14 melanoma
786-0 renal = system: 786-0 renal
HS 578T breast = system: HS 578T breast
CCRF-CEM leukemia = system: CCRF-CEM leukemia
UO-31 renal = system: UO-31 renal
NCI-H522 lung = system: NCI-H522 lung
MDA-MB-435 = system: MDA-MB-435
K-562 leukemia = system: K-562 leukemia
HCT-15 colon = system: HCT-15 colon
SW-620 colon = system: SW-620 colon
CAKI-1 renal = system: CAKI-1 renal
SK-OV-3 ovarian = system: SK-OV-3 ovarian
RPMI-8226 leukemia = system: RPMI-8226 leukemia
SNB-75 CNS = system: SNB-75 CNS
HOP-62 NSCLC = system: HOP-62 NSCLC
SN12C renal = system: SN12C renal
IGROV1 ovarian = system: IGROV1 ovarian
PC-3 prostate = system: PC-3 prostate
OVCAR-4 ovarian = system: OVCAR-4 ovarian
UACC-257 melanoma = system: UACC-257 melanoma
EKVX NSCLC = system: EKVX NSCLC
NCI/ADR-RES ovarian = system: NCI/ADR-RES ovarian
MALME-3M melanoma = system: MALME-3M melanoma
SK-MEL-5 melanoma = system: SK-MEL-5 melanoma
OVCAR-5 ovarian = system: OVCAR-5 ovarian
NCI-H226 lung = system: NCI-H226 lung
T-47D breast = system: T-47D breast
SF-268 CNS = system: SF-268 CNS
UACC-62 melanoma = system: UACC-62 melanoma
KM12 colon = system: KM12 colon
HT29 colon = system: HT29 colon
TK-10 renal = system: TK-10 renal
A549 NSCLC = system: A549 NSCLC
SNB-19 CNS = system: SNB-19 CNS
SR leukemia = system: SR leukemia
SK-MEL-2 melanoma = system: SK-MEL-2 melanoma

Compound: COC(C)(C)C(O)C(O)C[C@H](C)C1CC=C2C1(C)CCC1[C@@]3(C)CCC(OC(C)=O)C(C)(C)C3CC(OC3OC(COC(C)=O)C(O)C(O)C3O)[C@@]21C (stereo not given in full)
- TGI (NCI-H23 lung): > 10 µM
- TGI (SK-MEL-28 melanoma): > 10 µM
- TGI (LOX IMVI melanoma): 6.55 µM
- TGI (MOLT-4 leukemia): 4.13 µM
- TGI (SF-539 CNS): > 10 µM
- TGI (COLO 205 colon): 3.89 µM
- TGI (BT-549 breast): > 10 µM
- TGI (HOP-92 NSCLC): > 10 µM
- TGI (RXF 393 renal): > 10 µM
- TGI (A498 renal): 8.68 µM
- TGI (U251 CNS): > 10 µM
- TGI (MDA-N): > 10 µM
- TGI (NCI-H460 lung): > 10 µM
- TGI (OVCAR-3 ovarian): 9.79 µM
- TGI (MCF7 breast): > 10 µM
- TGI (OVCAR-8 ovarian): > 10 µM
- TGI (DU-145 prostate): > 10 µM
- TGI (MDA-MB-231 breast): 9.73 µM
- TGI (SF-295 CNS): > 10 µM
- TGI (ACHN renal): > 10 µM
- TGI (HL-60(TB) leukemia): 5.54 µM
- TGI (HCC-2998 colon): 6.15 µM
- TGI (HCT-116 colon): > 10 µM
- TGI (M14 melanoma): > 10 µM
- TGI (786-0 renal): > 10 µM
- TGI (HS 578T breast): > 10 µM
- TGI (CCRF-CEM leukemia): 7.96 µM
- TGI (UO-31 renal): 2.07 µM
- TGI (NCI-H522 lung): 8.7 µM
- TGI (MDA-MB-435): > 10 µM
- TGI (K-562 leukemia): > 10 µM
- TGI (HCT-15 colon): > 10 µM
- TGI (SW-620 colon): > 10 µM
- TGI (CAKI-1 renal): > 10 µM
- TGI (SK-OV-3 ovarian): > 10 µM
- TGI (RPMI-8226 leukemia): 5.14 µM
- TGI (SNB-75 CNS): > 10 µM
- TGI (HOP-62 NSCLC): > 10 µM
- TGI (SN12C renal): > 10 µM
- TGI (IGROV1 ovarian): 8.04 µM
- TGI (PC-3 prostate): > 10 µM
- TGI (OVCAR-4 ovarian): > 10 µM
- TGI (UACC-257 melanoma): > 10 µM
- TGI (EKVX NSCLC): > 10 µM
- TGI (NCI/ADR-RES ovarian): > 10 µM
- TGI (MALME-3M melanoma): > 10 µM
- TGI (SK-MEL-5 melanoma): 4.38 µM
- TGI (OVCAR-5 ovarian): > 10 µM
- TGI (NCI-H226 lung): > 10 µM
- TGI (T-47D breast): 8.73 µM
- TGI (SF-268 CNS): > 10 µM
- TGI (UACC-62 melanoma): > 10 µM
- TGI (KM12 colon): > 10 µM
- TGI (HT29 colon): 9.01 µM
- TGI (TK-10 renal): > 10 µM
- TGI (A549 NSCLC): > 10 µM
- TGI (SNB-19 CNS): > 10 µM

Compound: COc1ccc(-c2oc3c(CC(=O)O)cccc3c(=O)c2OC)cc1
- TGI (NCI-H23 lung): > 100 µM
- TGI (MOLT-4 leukemia): > 100 µM
- TGI (SF-539 CNS): > 100 µM
- TGI (COLO 205 colon): > 100 µM
- TGI (BT-549 breast): > 100 µM
- TGI (SR leukemia): > 100 µM
- TGI (RXF 393 renal): > 100 µM
- TGI (A498 renal): > 100 µM
- TGI (U251 CNS): > 100 µM
- TGI (MDA-N): > 100 µM
- TGI (SK-MEL-2 melanoma): > 100 µM
- TGI (OVCAR-3 ovarian): > 100 µM
- TGI (MCF7 breast): > 100 µM
- TGI (OVCAR-8 ovarian): > 100 µM
- TGI (DU-145 prostate): > 100 µM
- TGI (MDA-MB-231 breast): > 100 µM
- TGI (SF-295 CNS): > 100 µM
- TGI (ACHN renal): > 100 µM
- TGI (HL-60(TB) leukemia): > 100 µM
- TGI (HCC-2998 colon): > 100 µM
- TGI (HCT-116 colon): > 100 µM
- TGI (M14 melanoma): > 100 µM
- TGI (786-0 renal): > 100 µM
- TGI (HS 578T breast): > 100 µM
- TGI (CCRF-CEM leukemia): > 100 µM
- TGI (UO-31 renal): 53.4 µM
- TGI (NCI-H522 lung): > 100 µM
- TGI (MDA-MB-435): > 100 µM
- TGI (K-562 leukemia): > 100 µM
- TGI (CAKI-1 renal): 42.6 µM
- TGI (SK-OV-3 ovarian): > 100 µM
- TGI (HOP-62 NSCLC): > 100 µM
- TGI (SN12C renal): > 100 µM
- TGI (IGROV1 ovarian): > 100 µM
- TGI (PC-3 prostate): > 100 µM
- TGI (UACC-257 melanoma): > 100 µM
- TGI (EKVX NSCLC): > 100 µM
- TGI (NCI/ADR-RES ovarian): > 100 µM
- TGI (MALME-3M melanoma): > 100 µM
- TGI (SK-MEL-5 melanoma): > 100 µM
- TGI (OVCAR-5 ovarian): > 100 µM
- TGI (NCI-H226 lung): > 100 µM
- TGI (T-47D breast): > 100 µM
- TGI (SF-268 CNS): > 100 µM
- TGI (UACC-62 melanoma): > 100 µM
- TGI (HT29 colon): > 100 µM
- TGI (TK-10 renal): > 100 µM
- TGI (A549 NSCLC): > 100 µM
